Assay results published in PMC8449129, “Single tracer-based protocol for broad-spectrum kinase profiling in live cells with NanoBRET” (STAR Protocols, 2021).

Legend:
Assay in all cases: cell-based
Set-up in all cases: NanoBRET live-cell target engagement; % occupancy from displacement of tracer K10 on NanoLuc-kinase fusions, mean n=3
Conditions in all cases: HEK293, read-out: % inhibition
RPS6KA1 = RPS6KA1 (Homo sapiens, UniProt Q15418)
Method in brief: (§1)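 Live-cell NanoBRET target engagement: cells expressing kinase–NanoLuc fusion with tracer treated with compound 2 h at 37 °C, 5% CO2. BRET read from donor (450 nm) and acceptor (610/630 nm) emission with 20 μM extracellular NanoLuc inhibitor; % occupancy calculated relative to tracer+DMSO and zero-BRET controls.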

LCK = LCK (Homo sapiens, UniProt P06239)
Method in brief: as §1

NEK2 = NEK2 (Homo sapiens, UniProt P51955)
Method in brief: as §1

PAK6 = PAK6 (Homo sapiens, UniProt Q9NQU5)
Method in brief: as §1

CAMK1 = CAMK1 (Homo sapiens, UniProt Q14012)
Method in brief: as §1

CAMK2D = CAMK2D (Homo sapiens, UniProt Q13557)
Method in brief: as §1

MAP3K2 = MAP3K2 (Homo sapiens, UniProt Q9Y2U5)
Method in brief: as §1

NEK5 = NEK5 (Homo sapiens, UniProt Q6P3R8)
Method in brief: as §1

ULK2 = ULK2 (Homo sapiens, UniProt Q8IYT8)
Method in brief: as §1

PLK4 = PLK4 (Homo sapiens, UniProt O00444)
Method in brief: as §1

CDK4 = CDK4 (Homo sapiens, UniProt P11802)
Method in brief: as §1

SLK = SLK (Homo sapiens, UniProt Q9H2G2)
Method in brief: as §1

IRAK3 = IRAK3 (Homo sapiens, UniProt Q9Y616)
Method in brief: as §1

JNK3 = molecular target: T1, JNK3 (Homo sapiens, UniProt P53779)
T1 construct: gene MAPK10
Method in brief: as §1

FGFR2 = FGFR2 (Homo sapiens, UniProt P21802)
Method in brief: as §1

PTK6 = PTK6 (Homo sapiens, UniProt Q13882)
Method in brief: as §1

CDK18 = CDK18 (Homo sapiens, UniProt Q07002)
Method in brief: as §1

ABL2 = ABL2 (Homo sapiens, UniProt P42684)
Method in brief: as §1

Chain of NEK5 (Q6P3R8 whole entry): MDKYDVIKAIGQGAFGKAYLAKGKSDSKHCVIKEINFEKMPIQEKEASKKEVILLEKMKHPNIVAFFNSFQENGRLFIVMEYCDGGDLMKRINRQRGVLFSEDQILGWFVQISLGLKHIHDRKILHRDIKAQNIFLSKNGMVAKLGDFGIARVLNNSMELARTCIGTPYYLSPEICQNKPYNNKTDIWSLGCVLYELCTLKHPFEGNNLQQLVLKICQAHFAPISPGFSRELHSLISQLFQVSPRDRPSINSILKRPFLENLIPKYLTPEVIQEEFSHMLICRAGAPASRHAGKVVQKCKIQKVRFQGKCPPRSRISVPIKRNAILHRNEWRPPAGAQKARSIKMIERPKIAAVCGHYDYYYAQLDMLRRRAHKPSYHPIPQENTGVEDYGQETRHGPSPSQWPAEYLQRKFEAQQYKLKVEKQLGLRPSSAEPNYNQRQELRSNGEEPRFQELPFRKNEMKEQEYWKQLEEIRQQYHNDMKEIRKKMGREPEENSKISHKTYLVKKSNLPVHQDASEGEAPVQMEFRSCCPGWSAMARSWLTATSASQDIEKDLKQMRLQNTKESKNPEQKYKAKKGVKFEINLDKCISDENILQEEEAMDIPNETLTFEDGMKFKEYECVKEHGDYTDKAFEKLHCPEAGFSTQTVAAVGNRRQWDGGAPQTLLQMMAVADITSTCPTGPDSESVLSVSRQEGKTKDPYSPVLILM
Chain of CDK4 (P11802 whole entry): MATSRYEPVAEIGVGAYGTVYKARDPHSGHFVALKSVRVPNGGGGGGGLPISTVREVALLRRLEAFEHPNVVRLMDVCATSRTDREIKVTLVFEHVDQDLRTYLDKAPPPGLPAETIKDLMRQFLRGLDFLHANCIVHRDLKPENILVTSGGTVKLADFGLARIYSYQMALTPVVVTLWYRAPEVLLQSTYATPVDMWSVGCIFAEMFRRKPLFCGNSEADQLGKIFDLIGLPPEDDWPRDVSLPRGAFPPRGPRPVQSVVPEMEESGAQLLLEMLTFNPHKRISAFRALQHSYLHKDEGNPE
Chain of CAMK2D (Q13557 whole entry): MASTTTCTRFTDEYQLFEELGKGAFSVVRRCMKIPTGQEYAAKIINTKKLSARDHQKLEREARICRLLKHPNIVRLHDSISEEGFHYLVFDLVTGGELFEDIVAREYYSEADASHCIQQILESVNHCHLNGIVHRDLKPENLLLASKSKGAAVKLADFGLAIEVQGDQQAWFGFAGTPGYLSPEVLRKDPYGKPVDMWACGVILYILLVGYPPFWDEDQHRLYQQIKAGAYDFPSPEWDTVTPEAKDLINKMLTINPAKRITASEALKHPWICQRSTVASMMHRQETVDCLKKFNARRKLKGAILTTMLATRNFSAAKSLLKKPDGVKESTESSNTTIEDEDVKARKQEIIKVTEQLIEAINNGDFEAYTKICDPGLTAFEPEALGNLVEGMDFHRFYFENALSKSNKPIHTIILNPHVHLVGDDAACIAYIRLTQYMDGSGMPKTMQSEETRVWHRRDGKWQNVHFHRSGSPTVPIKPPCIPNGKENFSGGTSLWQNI
Chain of PAK6 (Q9NQU5 whole entry): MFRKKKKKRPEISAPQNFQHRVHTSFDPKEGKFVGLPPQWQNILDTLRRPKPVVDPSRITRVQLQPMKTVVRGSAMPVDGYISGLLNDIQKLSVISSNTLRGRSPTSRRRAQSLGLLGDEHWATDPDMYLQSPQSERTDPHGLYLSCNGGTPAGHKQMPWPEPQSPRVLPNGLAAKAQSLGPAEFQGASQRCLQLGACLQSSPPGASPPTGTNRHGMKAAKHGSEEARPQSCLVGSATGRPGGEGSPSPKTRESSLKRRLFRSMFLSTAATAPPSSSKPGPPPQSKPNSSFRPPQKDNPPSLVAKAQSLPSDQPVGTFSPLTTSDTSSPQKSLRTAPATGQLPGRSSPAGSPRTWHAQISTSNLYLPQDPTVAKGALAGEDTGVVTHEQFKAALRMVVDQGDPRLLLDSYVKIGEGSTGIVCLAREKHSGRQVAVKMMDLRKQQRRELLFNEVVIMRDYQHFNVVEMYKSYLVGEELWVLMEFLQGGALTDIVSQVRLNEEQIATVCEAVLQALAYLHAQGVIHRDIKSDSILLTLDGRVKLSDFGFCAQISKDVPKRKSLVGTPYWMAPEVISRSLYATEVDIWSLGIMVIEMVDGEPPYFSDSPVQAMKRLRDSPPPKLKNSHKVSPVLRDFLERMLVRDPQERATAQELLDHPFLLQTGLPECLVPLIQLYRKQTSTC
Chain of CAMK1 (Q14012 whole entry): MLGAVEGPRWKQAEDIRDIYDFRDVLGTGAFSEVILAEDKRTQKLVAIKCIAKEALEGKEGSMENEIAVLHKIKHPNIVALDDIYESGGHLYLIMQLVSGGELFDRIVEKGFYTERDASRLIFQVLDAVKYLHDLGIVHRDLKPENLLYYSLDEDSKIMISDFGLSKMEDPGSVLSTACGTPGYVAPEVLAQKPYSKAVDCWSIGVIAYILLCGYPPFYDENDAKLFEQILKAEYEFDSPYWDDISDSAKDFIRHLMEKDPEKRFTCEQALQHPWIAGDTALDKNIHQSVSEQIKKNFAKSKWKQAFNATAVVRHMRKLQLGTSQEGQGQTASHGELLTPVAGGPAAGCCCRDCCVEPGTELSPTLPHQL
T1 sequence (P53779 whole entry): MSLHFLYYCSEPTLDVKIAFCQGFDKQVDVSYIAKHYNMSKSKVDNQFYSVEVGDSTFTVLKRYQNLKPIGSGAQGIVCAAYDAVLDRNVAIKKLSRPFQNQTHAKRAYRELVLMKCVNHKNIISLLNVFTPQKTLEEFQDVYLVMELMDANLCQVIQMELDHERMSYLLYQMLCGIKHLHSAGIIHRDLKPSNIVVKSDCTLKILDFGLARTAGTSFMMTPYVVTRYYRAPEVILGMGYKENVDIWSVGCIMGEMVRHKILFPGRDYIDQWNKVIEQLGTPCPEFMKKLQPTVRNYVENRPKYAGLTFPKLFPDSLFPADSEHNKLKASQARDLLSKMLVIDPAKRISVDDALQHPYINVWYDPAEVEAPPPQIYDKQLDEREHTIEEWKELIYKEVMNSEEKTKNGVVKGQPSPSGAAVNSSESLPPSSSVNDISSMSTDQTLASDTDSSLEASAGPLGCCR
Chain of CDK18 (Q07002 whole entry): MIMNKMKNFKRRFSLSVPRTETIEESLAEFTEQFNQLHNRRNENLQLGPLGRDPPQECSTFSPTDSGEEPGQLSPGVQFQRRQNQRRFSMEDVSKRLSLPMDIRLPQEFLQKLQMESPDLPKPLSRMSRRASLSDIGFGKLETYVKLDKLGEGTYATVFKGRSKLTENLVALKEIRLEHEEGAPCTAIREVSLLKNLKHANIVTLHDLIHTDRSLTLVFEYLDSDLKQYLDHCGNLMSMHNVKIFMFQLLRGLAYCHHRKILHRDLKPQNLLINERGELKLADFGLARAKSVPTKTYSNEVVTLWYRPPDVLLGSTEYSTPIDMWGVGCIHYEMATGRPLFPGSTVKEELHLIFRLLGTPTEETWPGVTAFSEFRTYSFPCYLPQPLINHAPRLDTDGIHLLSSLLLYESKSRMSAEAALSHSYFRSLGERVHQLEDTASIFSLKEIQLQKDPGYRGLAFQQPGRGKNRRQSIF
Chain of SLK (Q9H2G2 whole entry): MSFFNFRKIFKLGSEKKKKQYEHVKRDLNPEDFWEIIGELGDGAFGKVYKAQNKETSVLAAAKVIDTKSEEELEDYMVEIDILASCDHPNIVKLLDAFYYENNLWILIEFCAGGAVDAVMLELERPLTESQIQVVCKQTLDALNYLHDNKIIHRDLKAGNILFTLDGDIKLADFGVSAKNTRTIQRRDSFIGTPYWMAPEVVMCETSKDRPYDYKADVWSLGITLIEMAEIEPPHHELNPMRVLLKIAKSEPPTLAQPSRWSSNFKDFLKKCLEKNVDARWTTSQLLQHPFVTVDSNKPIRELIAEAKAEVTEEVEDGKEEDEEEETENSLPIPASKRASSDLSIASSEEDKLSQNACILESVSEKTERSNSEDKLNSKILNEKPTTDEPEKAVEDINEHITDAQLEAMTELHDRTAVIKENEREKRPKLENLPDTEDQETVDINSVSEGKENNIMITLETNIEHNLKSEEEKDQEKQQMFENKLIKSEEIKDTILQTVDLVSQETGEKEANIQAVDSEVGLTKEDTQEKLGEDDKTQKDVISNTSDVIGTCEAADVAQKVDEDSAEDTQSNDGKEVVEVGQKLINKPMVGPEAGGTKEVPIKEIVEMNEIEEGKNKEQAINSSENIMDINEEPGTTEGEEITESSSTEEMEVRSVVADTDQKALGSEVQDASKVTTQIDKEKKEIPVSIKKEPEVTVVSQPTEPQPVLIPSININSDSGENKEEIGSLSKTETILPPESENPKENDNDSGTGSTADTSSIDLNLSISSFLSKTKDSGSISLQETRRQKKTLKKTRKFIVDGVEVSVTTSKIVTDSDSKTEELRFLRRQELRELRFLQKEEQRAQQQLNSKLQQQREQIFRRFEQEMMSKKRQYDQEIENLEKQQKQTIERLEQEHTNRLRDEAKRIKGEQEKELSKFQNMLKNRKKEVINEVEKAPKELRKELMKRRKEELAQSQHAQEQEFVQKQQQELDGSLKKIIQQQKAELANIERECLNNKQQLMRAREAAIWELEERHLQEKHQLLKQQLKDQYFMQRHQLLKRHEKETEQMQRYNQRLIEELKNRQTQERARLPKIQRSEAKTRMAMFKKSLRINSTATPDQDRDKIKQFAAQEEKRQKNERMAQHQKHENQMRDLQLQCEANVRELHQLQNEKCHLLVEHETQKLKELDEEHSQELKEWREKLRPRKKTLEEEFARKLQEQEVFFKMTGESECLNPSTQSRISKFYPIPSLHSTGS

Compound `C[C@@H](Oc1cc(-c2cnn(C3CCNCC3)c2)cnc1N)c1c(Cl)ccc(F)c1Cl` [crizotinib] has an inhibition at 1 µM (RPS6KA1) of -6%, an inhibition at 1 µM (LCK) of 36% and an inhibition at 1 µM (NEK2) of 6%. The inhibition at 1 µM (PAK6) was -7%, the inhibition at 1 µM (CAMK1) was 7% and the inhibition at 1 µM (CAMK2D) was 3%. It also gave an inhibition at 1 µM (MAP3K2) of 6%, an inhibition at 1 µM (NEK5) of -6% and an inhibition at 1 µM (ULK2) of -1%. For the same compound, the inhibition at 1 µM (PLK4) was 4%, the inhibition at 1 µM (CDK4) was 4% and the inhibition at 1 µM (SLK) was 36%. For the same compound, the inhibition at 1 µM (IRAK3) was 42%, the inhibition at 1 µM (JNK3) was -4% and the inhibition at 1 µM (FGFR2) was 10%. It also gave an inhibition at 1 µM (PTK6) of -2%, an inhibition at 1 µM (CDK18) of 2% and an inhibition at 1 µM (ABL2) of 43%.
